Test results taken from patent publication US20060089395A1, “Nf-kb activation inhibitors” (priority 2002, published 2006).
Like-named read-outs stand apart in the source and are kept apart here.

Test system: NF-κ B
Experiment: Inhibitory activity of NF-κ B activation, luciferase reporter assay in HepG2 under TNF-α stimulation
Format: cell-based, human
Procedure, shortened: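 Readout is firefly luciferase luminescence, expressed as inhibition versus compound-free wells. Before this, HepG2 cells carrying a transiently transfected 5×NF-κB-site luciferase plasmid (6–24 h post-transfection) received test compound plus TNF-α (40 ng/ml) for 4 h.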

[1] = 1 μg/mL, HepG2, TNF-α (40 ng/ml), 4 hours
[2] = 10 μg/mL, HepG2, TNF-α (40 ng/ml), 4 hours
[3] = Homo sapiens, 1 μg/mL, HepG2, TNF-α (40 ng/ml), 4 hours, read-out: Inhibitory Ratio of NF-κ B Activation(%) Drug Concentration 1 μg/mL
[4] = Homo sapiens, 10 μg/mL, HepG2, TNF-α (40 ng/ml), 4 hours, read-out: Inhibitory Ratio of NF-κ B Activation(%) Drug Concentration 10 μg/mL

| Structure (SMILES) | Inhibitory Ratio of NF-κ B Activation(%) Drug Concentration 1 μg/mL [1] [%] | Inhibitory Ratio of NF-κ B Activation(%) Drug Concentration 10 μg/mL [2] [%] | also measured |
| --- | --- | --- | --- |
| O=C(Nc1cc(C(F)(F)F)cc(C(F)(F)F)c1)c1c(O)cccc1O [Compound No. 52] | 96.4 | 97.3 |  |
| O=C(Nc1cc(C(F)(F)F)cc(C(F)(F)F)c1)c1cc(C(=O)N2CCCCC2)ccc1O [Compound No. 39, N-[3,5-Bis(trifluoromethyl)phenyl]-2-hydroxy-5-(piperidine-1-carbonyl)benzamide] |  |  | inhibition at 1 µg/mL [3]: 23.7%; inhibition at 10 µg/mL [4]: 82.2% |
| O=C(Nc1nc(-c2ccccc2)c(-c2ccccc2)o1)c1cc(Br)ccc1O [Compound No. 235] |  | 81.8 |  |
| CC(C)(C)c1nc(NC(=O)c2cc(Br)ccc2O)sc1N1CCCCC1 [Compound No. 204, 5-Bromo-N-{4-[(1,1-dimethyl)ethyl]-5-piperidinothiazol-2-yl)-2-hydroxybenzamide] |  |  | inhibition at 1 µg/mL [3]: 93.6%; inhibition at 10 µg/mL [4]: 97.8% |
| O=C(Nc1cc(C(F)(F)F)cc(C(F)(F)F)c1)c1ccc(-c2ccccc2)cc1O [Compound No. 262, N-[3,5-Bis(trifluoromethyl)phenyl]-2-hydroxy-4-phenylbenzamide] |  |  | inhibition at 1 µg/mL [3]: > 99.9% |
| O=C(Nc1cc(C(F)(F)F)cc(C(F)(F)F)c1)c1ccc(O)c(C(=O)Nc2cc(C(F)(F)F)cc(C(F)(F)F)c2)c1 [Compound No. 37] |  | 94.5 |  |
| CN1CCN(c2sc(NC(=O)c3cc(Br)ccc3O)nc2C(C)(C)C)CC1 [Compound No. 206, 5-Bromo-N-{4-[(1,1-dimethyl)ethyl]-5-(4-methylpiperazin-1-yl)thiazol-2-yl)-2-hydroxybenzamide] |  |  | inhibition at 1 µg/mL [3]: 36.3%; inhibition at 10 µg/mL [4]: 89.6% |
| O=C(Nc1cc(C(F)(F)F)cc(C(F)(F)F)c1)c1ccc(O)cc1O [Compound No. 55] | 10.8 | 88.6 |  |
| COc1cccc(C(=O)Nc2cc(C(F)(F)F)cc(C(F)(F)F)c2)c1O [Compound No. 59] | 41.9 | 94.7 |  |
| CC(C)(C)c1cc(NC(=O)c2cc(Cl)ccc2O)cc(C(C)(C)C)c1 [Compound No. 138, N-{3,5-bis[(1,1-dimethyl)ethyl]phenyl}-5-chloro-2-hydroxybenzamide] |  |  | inhibition at 1 µg/mL [3]: 89.6%; inhibition at 10 µg/mL [4]: 98.1% |
| Cc1ccc(S(=O)(=O)c2ccc(Cl)c(NC(=O)c3cc(Cl)ccc3O)c2)cc1 [Compound No. 169] | 31.6 | 95.9 |  |
| O=C(Nc1cc(C(F)(F)F)ccc1F)c1cc(Cl)ccc1O [Compound No. 87] | 93.1 | 95.9 |  |
| O=C(Nc1cc(C(F)(F)F)cc(C(F)(F)F)c1)c1ccccc1O [compound 2] | 93.3 | 95.6 |  |
| O=C(Nc1nnc(C(F)(F)F)s1)c1cc(Br)ccc1O [Compound No. 238] | 26.1 | 90.3 |  |
| CCCCOc1ccc(OCCCC)c(NC(=O)c2cc(Cl)ccc2O)c1 [Compound No. 161] | 94.2 | 97.6 |  |
| O=C(Nc1cc(C(F)(F)F)cc(C(F)(F)F)c1)c1scc(Br)c1O [Compound No. 74, 4-Bromo-3-hydroxy-N-[3,5-bis(trifluoromethyl)phenyl]thiophene-2-carboxamide] |  |  | inhibition at 1 µg/mL [3]: 64%; inhibition at 10 µg/mL [4]: 97.5% |
| O=C(Nc1ccc(Cl)c(Cl)c1)c1cc(Br)ccc1O [drawing 558, reference compound] |  |  | inhibition at 0.1 µg/mL (Homo sapiens, HepG2, 4 h, 0.1 μg/ml, comparison table, reporter assay, read-out: Inhibitory Ratio of NF-κB Activation (%) 0.1 μg/ml): 6.8%; inhibition at 1 µg/mL (Homo sapiens, HepG2, 4 h, 1 μg/ml, comparison table, reporter assay, read-out: Inhibitory Ratio of NF-κB Activation (%) 1 μg/ml): 88.7%; inhibition at 10 µg/mL (Homo sapiens, HepG2, 4 h, 10 μg/ml, comparison table, reporter assay, read-out: Inhibitory Ratio of NF-κB Activation (%) 10 μg/ml): 92.7% |

| Structure (SMILES) | Inhibitory Ratio of NF-κ B Activation(%) Drug Concentration 1 μg/mL [1] [%] | Inhibitory Ratio of NF-κ B Activation(%) Drug Concentration 10 μg/mL [2] [%] | also measured |
| --- | --- | --- | --- |
| Cc1cccc(C(=O)Nc2cc(C(F)(F)F)cc(C(F)(F)F)c2)c1O [Compound No. 58, N-[3,5-bis(trifluoromethyl)phenyl]-2-hydroxy-3-methylbenzamide] |  |  | inhibition at 1 µg/mL [3]: 88.2%; inhibition at 10 µg/mL [4]: 95% |
| N#Cc1ccc(O)c(C(=O)Nc2cc(C(F)(F)F)cc(C(F)(F)F)c2)c1 [compound 9, N-[3,5-Bis(trifluoromethyl)phenyl]-5-cyano-2-hydroxybenzamide] |  |  | inhibition at 1 µg/mL [3]: 92.2%; inhibition at 10 µg/mL [4]: 99.6% |
| COc1ccc(C)cc1NC(=O)c1cc(Cl)ccc1O [Compound No. 178] |  | 89.7 |  |
| O=C(Nc1cc(C(F)(F)F)cc(C(F)(F)F)c1)c1cc(-c2cccs2)ccc1O [Compound No. 28] | 79.5 | 97.8 |  |
| CC(O)c1ccc(O)c(C(=O)Nc2cc(C(F)(F)F)cc(C(F)(F)F)c2)c1 (centres unmarked) [Compound No. 13] | 76.8 | 96.0 |  |
| COc1ccc(-c2csc(NC(=O)c3cc(Cl)ccc3O)n2)cc1 [Compound No. 264, 5-Chloro-2-hydroxy-N-[4-(4-methoxyphenyl)thiazol-2-yl]benzamide] |  |  | inhibition at 1 µg/mL [3]: > 99.9% |
| O=C(Nc1cc(C(F)(F)F)ccc1N1CCCCC1)c1cc(Cl)ccc1O [Compound No. 116] | 90.0 | 97.3 |  |
| O=C(Nc1cc(C(F)(F)F)cc(C(F)(F)F)c1)c1cc(Br)c(O)cc1O [Compound No. 54] |  | 86.5 |  |
| CCC(C)(C)c1ccc(O)c(NC(=O)c2cc(Cl)ccc2O)c1 [Compound No. 177] | 87.8 | 99.4 |  |
| O=C(Nc1cc(C(F)(F)F)cc(C(F)(F)F)c1)c1cc(Cl)ccc1O [Compound No. 80] | 46.3 | 73.0 |  |
| CC(C)(C)c1cc(NC(=O)c2cc([N+](=O)[O-])ccc2O)cc(C(C)(C)C)c1 [Compound No. 146] | 91.2 | 98.5 |  |
| O=C(Nc1nc(-c2cccc(C(F)(F)F)c2)cs1)c1cc(Cl)ccc1O [Compound No. 265, 5-Chloro-2-hydroxy-N-{4-[3-(trifluoromethyl)phenyl]thiazol-2-yl}benzamide] |  |  | inhibition at 1 µg/mL [3]: > 99.9% |
| Cc1ccc(O)c(C(=O)Nc2cc(C(F)(F)F)cc(C(F)(F)F)c2)c1 [compound 10] | 95.8 | 99.4 |  |
| O=C(Nc1cc([N+](=O)[O-])ccc1Cl)c1cc(Cl)ccc1O [Compound No. 156] | 93.8 | 95.7 |  |
| COc1ccc(C(C)(C)c2ccccc2)cc1NC(=O)c1cc(Cl)ccc1O [Compound No. 173] | 86.4 | 98.3 |  |
| O=C(Nc1cc(Cl)cc(Cl)c1)c1cc(Br)cc(Br)c1O [Compound No. 128] | 91.4 | 95.1 |  |
| CC(C)NC(=O)c1sc(NC(=O)c2cc(Br)ccc2O)nc1-c1ccccc1 [Compound No. 222] | 49.6 | 91.3 |  |
